The subject of this test is tomato seedlings (Solanum lycopersicum cv. Moneymaker). Briefly: Root growth assay on ½MS media containing ABA. It counts as in vivo. The following applies: wild type tomato; 0, 5, 10 or 40 μM ABA; root length seven days after transfer, relative to medium without ABA. As for the experimental part:
Seeds were sterilized as described above and sown in water containing […]. After radicle protrusion ten seeds of each line were placed on ½MS media containing either 0, 5, 10, or 40 μM ABA. The roots were measured and the plates were placed in vertical position and grown under conditions described above. Seven days after transfer the length of the root was measured again and root growth was calculated as a percentage of root growth compared to ½MS media without ABA (100%). Experiments were carried out three times and mean values plus SD are shown. Student's t-tests were performed to test for significance (p<0.05).

For the molecule `CC1=CC(=O)CC(C)(C)[C@@]1(O)/C=C/C(C)=C\C(=O)O` [ABA, abscisic acid], the “root growth after germination” value was “reduced”.

For the origin of these results see patent publication US9532520B2, “Drought tolerant plants” (NUNHEMS B.V., priority 2009, dated 2017).
